Results published in PubChem BioAssay (NCI).
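Grown in 96-well plates, cells were treated for 48 hours with each compound at five concentrations. Insufficient inhibition: endpoint recorded as highest concentration tested. The concentration for full growth arrest is given as TGI.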 Where a SMILES comes first, the peptide text is derived from it. [ ]: non-standard residue; d: D form. The star is where a group is joined. ξ: configuration not given here. ξD = NC(CC(=O)O)C(=O)O; Boc = CC(C)(C)OC(=O)*; Aib = CC(C)(N)C(=O)O; OBn = c1ccc(CO*)cc1

Key:
Experiment in all cases: DTP human tumour cell line panel, 48 h
[1] = tested on: DU-145 prostate
[2] = tested on: MCF7 breast
[3] = tested on: NCI-H522 lung
[4] = tested on: CAKI-1 renal
[5] = tested on: MOLT-4 leukemia
[6] = tested on: A498 renal
[7] = tested on: A549 NSCLC
[8] = tested on: UACC-257 melanoma
[9] = tested on: UACC-62 melanoma
[10] = tested on: OVCAR-5 ovarian
[11] = tested on: M14 melanoma
[12] = tested on: SF-268 CNS
[13] = tested on: BT-549 breast
[14] = tested on: SF-539 CNS
[15] = tested on: OVCAR-3 ovarian
[16] = tested on: MDA-MB-435
[17] = tested on: PC-3 prostate
[18] = tested on: TK-10 renal
[19] = tested on: COLO 205 colon

Row | SMILES | TGI [1] | TGI [2] | TGI [3] | TGI [4] | TGI [5] | TGI [6] | TGI [7] | TGI [8] | TGI [9] | TGI [10] | TGI [11] | TGI [12] | TGI [13] | TGI [14] | TGI [15] | TGI [16] | TGI [17] | TGI [18] | TGI [19]
1 | N#CC(O)CCOCc1ccccc1 (stereo not drawn) | > 100 µM | > 100 µM | 51.4 µM | 35.6 µM | 14.8 µM | > 100 µM | > 100 µM | > 100 µM | > 100 µM | > 100 µM | > 100 µM | > 100 µM | > 100 µM | > 100 µM | > 100 µM | > 100 µM | > 100 µM | > 100 µM | > 100 µM
2 | Cn1c(=O)c2c(nc3n2CCCC(=O)N3CCCCl)n(C)c1=O | > 100 µM | > 100 µM | > 100 µM | > 100 µM | > 100 µM | > 100 µM | > 100 µM | > 100 µM | > 100 µM | > 100 µM | > 100 µM | > 100 µM | > 100 µM | – | > 100 µM | > 100 µM | > 100 µM | > 100 µM | > 100 µM
3 | O=S(=O)(CC(Cl)c1ccccc1)c1nc2ccccc2s1 (stereo not drawn) | 30.2 µM | 23.3 µM | 4.89 µM | 4.4 µM | 7.64 µM | 35.1 µM | 43.1 µM | 23.2 µM | 40 µM | 28.8 µM | 7.2 µM | 33.1 µM | 8.72 µM | 23.9 µM | 23.2 µM | 20.5 µM | 29.9 µM | 34.2 µM | 22.2 µM
4 | Cc1cccc2c(N)c3cccc(C(=O)NCC[N+](C)(C)Cc4ccccc4[N+](=O)[O-])c3nc12 | > 100 µM | > 100 µM | 18.5 µM | > 100 µM | 9.34 µM | > 29.3 µM | > 54.5 µM | > 70.7 µM | > 19.7 µM | 60.2 µM | > 40.3 µM | > 35.2 µM | > 39 µM | > 32.5 µM | > 91.4 µM | > 46.9 µM | 45.2 µM | > 20 µM | > 39.7 µM
5 | O=C(N/C(=C\c1ccccc1)c1nc2ccccc2c(=O)o1)c1ccccc1 | > 100 µM | > 100 µM | > 100 µM | > 100 µM | > 100 µM | > 100 µM | > 100 µM | > 72.6 µM | > 100 µM | > 100 µM | > 100 µM | > 78.2 µM | 66.8 µM | > 100 µM | > 100 µM | > 100 µM | > 100 µM | > 100 µM | > 100 µM
6 | C/C(=C/CC[C@](C)(OC1OC(CO)C(O)C(O)C1O)[C@H]1CC[C@]2(C)[C@@H]1CC[C@@H]1[C@@]3(C)CC[C@H](O)C(C)(C)[C@@H]3C[C@H](O)[C@]12CO)CO (stereo partly drawn) | > 100 µM | > 100 µM | > 100 µM | > 100 µM | > 100 µM | > 100 µM | > 100 µM | > 100 µM | > 100 µM | > 100 µM | > 100 µM | > 100 µM | > 100 µM | > 100 µM | > 100 µM | > 100 µM | > 100 µM | > 100 µM | > 100 µM
7 | CC(C)(C)OC(=O)NC(CC(=O)OCc1ccccc1)C(=O)NC(C)(C)C(N)=O (stereo not drawn) (Boc-[ξD](OBn)-[Aib]-NH2) | > 100 µM | > 100 µM | > 100 µM | > 100 µM | > 100 µM | > 100 µM | > 100 µM | > 100 µM | > 100 µM | > 100 µM | > 100 µM | > 100 µM | > 100 µM | > 100 µM | > 100 µM | > 100 µM | > 100 µM | > 100 µM | > 100 µM
8 | O=C(CCN1CCCCC1)Nc1ccc2c(c1)C(=O)c1ccc(NC(=O)CCN3CCCCC3)cc1C2=O | 26.9 µM | 5.91 µM | 32.7 µM | 27.5 µM | 14.5 µM | 26.7 µM | 10.3 µM | 30.5 µM | 34.7 µM | 31.4 µM | 10.1 µM | 24.2 µM | 27.8 µM | 7.13 µM | 20.9 µM | 3.25 µM | 5.1 µM | 21.2 µM | 24 µM
9 | CC(=O)Nc1ccc(S(=O)(=O)c2nnc(NC(C)=O)s2)cc1 | > 100 µM | > 100 µM | > 100 µM | > 100 µM | > 100 µM | > 100 µM | > 100 µM | > 100 µM | > 100 µM | > 100 µM | > 100 µM | > 100 µM | > 100 µM | > 100 µM | > 100 µM | > 100 µM | > 100 µM | > 100 µM | 0.537 µM
10 | CSc1nc(-c2ccccc2)[nH]c(=O)n1 | > 100 µM | > 100 µM | > 100 µM | > 100 µM | > 100 µM | > 100 µM | > 100 µM | > 100 µM | > 100 µM | > 100 µM | > 100 µM | > 100 µM | > 100 µM | > 100 µM | > 100 µM | > 100 µM | > 100 µM | > 100 µM | > 100 µM
11 | CCC1C(NC(=O)OC)C(=O)N1[C@@H](C)c1ccccc1 (stereo partly drawn) | > 100 µM | > 100 µM | > 100 µM | > 100 µM | > 100 µM | > 100 µM | – | > 100 µM | > 100 µM | > 100 µM | > 100 µM | > 100 µM | > 100 µM | > 100 µM | > 100 µM | > 100 µM | > 100 µM | > 100 µM | > 100 µM
12 | CCOC(=O)C(=[N+]=[N-])C(=O)CSC#N | > 100 µM | > 100 µM | 79.4 µM | > 100 µM | > 100 µM | > 100 µM | > 100 µM | > 100 µM | > 100 µM | > 100 µM | > 100 µM | > 100 µM | > 100 µM | 47.1 µM | – | > 100 µM | > 100 µM | > 100 µM | > 100 µM
13 | FC(F)(F)c1ccc2c(-c3cc[nH]c3)ccnc2c1 | > 100 µM | > 100 µM | 94.9 µM | 94 µM | 59.3 µM | 51.8 µM | 75 µM | > 100 µM | > 100 µM | 87.4 µM | > 100 µM | – | 68.9 µM | > 100 µM | 88 µM | > 100 µM | > 100 µM | 70.1 µM | 43.8 µM
14 | CCOC(=O)c1c(CN2CCNCC2)nc2ccc(Cl)cc2c1-c1ccccc1 | 31.9 µM | 28.6 µM | 9.41 µM | 8.11 µM | 4.57 µM | 23.4 µM | 17.7 µM | 3.62 µM | 3.76 µM | 36 µM | 3.85 µM | 17.9 µM | 27 µM | 7.56 µM | 20.2 µM | 8.21 µM | 12.4 µM | 10.8 µM | 4.16 µM
15 | S=C(NCCc1ccccn1)N/N=C(\c1ccccc1)c1ccccn1 | > 48.6 µM | > 100 µM | > 100 µM | > 58.8 µM | > 78.6 µM | 0.951 µM | > 100 µM | > 70.5 µM | > 24.4 µM | > 100 µM | > 100 µM | > 76.1 µM | 39.3 µM | 27.1 µM | > 100 µM | > 100 µM | > 100 µM | > 100 µM | > 100 µM
16 | CCS1=C2C(=O)CC(C)(C)CC2=Nc2ccccc21 (stereo not drawn) | > 100 µM | > 100 µM | > 100 µM | > 100 µM | > 100 µM | > 100 µM | > 100 µM | > 100 µM | > 100 µM | > 100 µM | > 100 µM | > 100 µM | > 100 µM | – | > 100 µM | > 100 µM | > 100 µM | > 100 µM | > 100 µM
17 | N#Cc1ccc(C2ON=C(c3ccccc3)N2C23CC4CC(CC(C4)C2)C3)cc1 (stereo not drawn) | > 10 µM | > 10 µM | > 10 µM | > 10 µM | > 10 µM | > 10 µM | > 10 µM | > 10 µM | > 10 µM | > 10 µM | > 10 µM | > 10 µM | > 10 µM | > 10 µM | > 10 µM | > 10 µM | > 10 µM | > 10 µM | > 10 µM
18 | CCCCCCCCCCC/C=C(/C(=O)CCCO[Si](C)(C)C(C)(C)C)C(=O)OC | > 100 µM | > 100 µM | > 100 µM | > 100 µM | > 100 µM | > 100 µM | – | > 100 µM | > 100 µM | > 100 µM | > 100 µM | > 100 µM | > 100 µM | > 100 µM | > 100 µM | > 100 µM | > 100 µM | > 100 µM | > 100 µM
19 | COc1cccc(/C=C2\CCC(CN(C)C)C2=O)c1 (stereo not drawn) | 9.29 µM | 13.2 µM | 6.15 µM | 15.7 µM | 5.19 µM | 31.5 µM | 42.7 µM | 12.7 µM | 20.9 µM | 29.6 µM | 9.62 µM | 33.5 µM | 15.2 µM | 27.9 µM | 11.9 µM | 7.02 µM | 27.2 µM | 24.3 µM | 24.5 µM
20 | Cc1cc(C)n(-c2nc(-n3nc(C)cc3C)nc(-n3nc(C)cc3C)n2)n1 | > 100 µM | > 100 µM | > 100 µM | > 100 µM | > 100 µM | > 100 µM | > 100 µM | > 100 µM | > 100 µM | > 100 µM | > 100 µM | > 100 µM | > 100 µM | > 100 µM | > 100 µM | > 100 µM | > 100 µM | 86.5 µM | > 100 µM
21 | CCOC(=O)c1cc(=O)c2cccc3c2n1CCS3 | > 100 µM | > 100 µM | > 100 µM | > 100 µM | > 100 µM | > 100 µM | > 100 µM | > 100 µM | > 100 µM | > 100 µM | > 100 µM | > 100 µM | > 100 µM | > 100 µM | > 100 µM | > 100 µM | > 100 µM | > 100 µM | > 100 µM
